Values of other authors, collected in patent US6927291B2, “Method for the synthesis of 2′,3′-dideoxy-2′,3′-didehydronucleosides” (Pharmasset, Ltd., priority 2001, dated 2005).

Tests used:
[1] = system: AZT-resistant HIV isolates; settings: in vitro; isolates from patients treated with AZT for longer than 36 weeks
HIV [2] = settings: result in words
HIV [3] = settings: versus all approved anti-HIV agents

Row | SMILES | inhibition of replication of AZT-resistant HIV isolates [1] | activity against HIV (HIV [2]) | cross-resistance (HIV [3])
1 | Nc1ccn(C2CSC(CO)O2)c(=O)n1 (racemic) [BCH-189, 2-hydroxymethyl-5-(cytosin-1-yl)-1,3-oxathiolane] | inhibit the replication of AZT-resistant HIV isolates in vitro | approximately the same activity against HIV as AZT | –
2 | Nc1nc(=O)n([C@@H]2CS[C@H](CO)O2)cc1F (relative stereo) [FTC, cis-2-hydroxymethyl-5-(5-fluorocytosin-1-yl)-1,3-oxathiolane] | – | potent HIV activity | –
3 | Nc1ccn([C@@H]2CS[C@H](CO)O2)c(=O)n1 [Formula 3TC] | – | highly potent against HIV | –
4 | Nc1nc(=O)n(C2C=CC(CO)O2)cc1F [β-D-D4FC, β-D-2′,3′-didehydro-2′,3′-dideoxy-5-fluorocytidine] | – | potent anti-HIV activity in vitro | no cross-resistance with all approved anti-HIV agents
